The structures appear in SMILES notation. ≈ marks a conversion by molar mass, not a printed value. Where two headings read alike, the source gives them in different places.

The record followed here is patent US7074824B2, “Pharmaceutical compositions containing beta-lapachone, or derivatives or analogs thereof, and methods of using same” (Arqule, Inc., priority 2001, dated 2006).

Data set [1] is described as follows: Solubility in water and in 40% (w/v) HPBCD solution by UV absorbance. Type of data set: physicochemical. As for the experimental part:
To determine solubilities, test compounds were first dissolved in ethanol to prepare standard solutions with concentrations in the range 2.5–10 mg/ml, then were diluted with to 10 μg/ml with water. UV scans were obtained of the 10 μg/ml standard solutions, and the wavelength of maximum absorbance and the absorbance at the maximum absorbance wavelength were determined. For each test compound 50 μl aliquots of water and of 40% HPBCD were added to individual Eppendorf tubes containing approximately 1 mg of compound each. The tubes were heated in a 30° C. waterbath, vortexed, then centrifuged at 15,000 rpm for 5 min. This step was repeated, then the tubes were cooled to room temperature for 1 hour, then were centrifuged again. The supernatant from each tube was diluted with water into the appropriate absorbance range, and the UV absorbance was measured at the compound's absorbance maximum wavelength. The concentrations of these saturated solutions were then calculated by ratio to the 10 μg/ml ethanolic standard solutions.

The test system of data set [2] is A2780CP. In words: MTS growth inhibition assay. Type of data set: cell-based, human. The conditions noted are these: A2780CP (resistant) ovarian, read-out: Growth inhibitory activity (50% effective concentration, IC50). As for the experimental part: (§1) A2780 and A2780/CP (ovarian); MCF-7 (breast); HT-29 (colon); BxPC-3 (pancreas); and A549 (lung). The human tumor cell lines (purchased from ATCC, Rockville, Md.) were cultured at 37° C. […] Nova Tech, Grand Island, N.Y.) containing 10% fetal bovine serum (FBS, Nova Tech). Aliquots of cells were seeded into each well of 96-well microtiter plates at a final concentration of 10^4 cells/well and incubated for 24 h prior to exposure to test compounds. […] The MTS assay is a colorimetric assay based upon the ability of viable cells to convert MTS, a novel tetrazolium compound and electron-coupling reagent, to a colored formazan product that is soluble in cell culture medium. The cell concentration is then determined by measuring the absorbance of the formazan product at 490 nm. Growth inhibition, expressed as IC50, is calculated relative to vehicle-treated control cells.

For data set [3], the system named is HT-29. Nature of the data set: MTS growth inhibition assay. The conditions noted are these: HT-29 colon, read-out: Growth inhibitory activity (50% effective concentration, IC50). Type of data set: cell-based, human. The method, then: as §1
The test system of data set [4] is BxPC-3. In words: MTS growth inhibition assay. Type of data set: cell-based, human. The conditions noted are these: BxPC-3 pancreas, read-out: Growth inhibitory activity (50% effective concentration, IC50). The method, then: as §1
For data set [5], the system named is MCF-7. Nature of the data set: MTS growth inhibition assay. The conditions noted are these: MCF-7 breast, read-out: Growth inhibitory activity (50% effective concentration, IC50). Type of data set: cell-based, human. As for the experimental part:
as §1

Data set [6] has as its system A549. In words: MTS growth inhibition assay. Type of data set: cell-based, human. The conditions noted are these: A549 lung, read-out: Growth inhibitory activity (50% effective concentration, IC50). The method, then: as §1
Data set [7] has as its system A2780. In words: MTS growth inhibition assay. Type of data set: cell-based, human. The conditions noted are these: A2780 (sensitive) ovarian, read-out: Growth inhibitory activity (50% effective concentration, IC50). As for the experimental part: as §1
For data set [8], the system named is six human cancer cells lines. Nature of the data set: MTS growth inhibition assay, summary over all lines. The conditions noted are these: all six tumor cell lines; tested up to 20 μM. Type of data set: cell-based. The method, then:
A2780 and A2780/CP (ovarian); MCF-7 (breast); HT-29 (colon); BxPC-3 (pancreas); and A549 (lung). The human tumor cell lines (purchased from ATCC, Rockville, Md.) were cultured at 37° C. (5% CO2) in RPMI medium (RPMI; Nova Tech, Grand Island, N.Y.) containing 10% fetal bovine serum (FBS, Nova Tech). Aliquots of cells were seeded into each well of 96-well microtiter plates at a final concentration of 10^4 cells/well and incubated for 24 h prior to exposure to test compounds. […] The MTS assay is a colorimetric assay based upon the ability of viable cells to convert MTS, a novel tetrazolium compound and electron-coupling reagent, to a colored formazan product that is soluble in cell culture medium. The cell concentration is then determined by measuring the absorbance of the formazan product at 490 nm. Growth inhibition, expressed as IC50, is calculated relative to vehicle-treated control cells.

The mark [9] stands for this setting: Exp 1, 4 h treatment + 24 h drug-free.
The mark [10] stands for this setting: Exp 2, 4 h treatment + 24 h drug-free.
Where [11] appears, read: Exp 3, 4 h treatment + 24 h drug-free.

As for `CC1(C)C=CC2=C(O1)c1ccccc1C(=O)C2=O` [3,4-dehydro-βL], in data set [1], the “Solubility Enhancement” value is on record as 240 −Fold, the “Solubility in HPBCD Solution” value was 5800 µg/mL (≈ 24.1 mM) and the “Solubility in Water” value is 24 µg/mL (≈ 0.0999 mM).

Regarding `CC(C)=CCC1CC2=C(OC1(C)C)c1ccccc1C(=O)C2=O` (stereo not drawn) [3-(3-methyl-2-butenyl)-βL], in data set [1], the “Solubility Enhancement” value is 61 −Fold, the “Solubility in HPBCD Solution” value was found to be 4100 µg/mL (≈ 13.2 mM) and the “Solubility in Water” value amounted to 67 µg/mL (≈ 0.216 mM).

On to `CC1(C)CC(=O)C2=C(O1)c1ccccc1C(=O)C2=O` [CO-505], for which the IC50 in data set [2] (Exp 1), in data set [2] (Exp 2), in data set [2] (Exp 3), in data set [2] (Mean ± SE of 3 experiments), in data set [3] (Exp 1) and in data set [3] (Exp 2) was over 20 µM in each case. Moreover, the IC50 in data set [3] (Exp 3), in data set [3] (Mean ± SE of 3 experiments), in data set [4] (Exp 1), in data set [4] (Exp 2), in data set [4] (Exp 3) and in data set [4] (Mean ± SE of 3 experiments) was over 20 µM throughout. The IC50 in data set [5] (Exp 1), in data set [5] (Exp 2), in data set [5] (Exp 3), in data set [5] (Mean ± SE of 3 experiments), in data set [6] (Exp 1) and in data set [6] (Exp 2) was over 20 µM in each case. Besides, the IC50 in data set [6] (Exp 3), in data set [6] (Mean ± SE of 3 experiments), in data set [7] (setting [9]), in data set [7] (setting [10]), in data set [7] (setting [11]) and in data set [7] (Mean ± SE of 3 experiments) was over 20 µM throughout. In addition, the “growth inhibitory activity, verbal summary” value (shortened to “growth inhibitory activity”) in data set [8] was “inactive”.

On to `CC1OC2=C(C(=O)C(=O)c3ccccc32)C1(C)C` (stereo not drawn) [CO-506], for which the IC50 in data set [2] (Exp 1) is 2.73 µM; in data set [2] (Exp 2), 3.85 µM; in data set [2] (Exp 3), 1.53 µM; in data set [2] (Mean ± SE of 3 experiments) it was 2.7 ± 0.67 µM; in data set [3] (Exp 1), 17.3 µM; in data set [3] (Exp 2) it was 13.4 µM. Also, the IC50 in data set [3] (Exp 3) is 11.2 µM; in data set [3] (Mean ± SE of 3 experiments), 14 ± 1.78 µM; in data set [4] (Exp 1), 5.69 µM; in data set [4] (Exp 2) it was 8.4 µM; in data set [4] (Exp 3), 9.22 µM; in data set [4] (Mean ± SE of 3 experiments), 7.77 ± 1.07 µM. For the same molecule, the IC50 in data set [5] (Exp 1) was 2.64 µM; in data set [5] (Exp 2), 3.99 µM; in data set [5] (Exp 3) it was 3.53 µM; in data set [5] (Mean ± SE of 3 experiments), 3.39 ± 0.4 µM; in data set [6] (Exp 1), 7.5 µM; in data set [6] (Exp 2) it was 12.7 µM. The IC50 was determined as 15.3 µM in data set [6] (Exp 3); 11.8 ± 2.28 µM in data set [6] (Mean ± SE of 3 experiments); 2.47 µM in data set [7] (setting [9]); 4.79 µM in data set [7] (setting [10]); 3.23 µM in data set [7] (setting [11]); 3.5 ± 0.68 µM in data set [7] (Mean ± SE of 3 experiments). Moreover, the “growth inhibitory activity” value in data set [8] was “activity profile similar to CO-501”.

Consider `CCCCCC(=O)OC1=CC(=O)C(=O)c2ccccc21` [CO-507, 4-hexanoyloxy-1,2-naphthoquinone], for which the IC50 was over 20 µM in data set [2] (Exp 2); over 20 µM in data set [2] (Exp 3); over 20 µM in data set [2] (Mean ± SE of 3 experiments); over 20 µM in data set [2] (Homo sapiens, A2780C/P, Exp 1); over 20 µM in data set [3] (Exp 2); over 20 µM in data set [3] (Exp 3). In addition, the IC50 is over 20 µM in data set [3] (Mean ± SE of 3 experiments); over 20 µM in data set [3] (Homo sapiens, Exp 1); over 20 µM in data set [4] (Exp 2); over 20 µM in data set [4] (Exp 3); over 20 µM in data set [4] (Mean ± SE of 3 experiments); over 20 µM in data set [4] (Homo sapiens, Exp 1). For the same molecule, the IC50 in data set [5] (Homo sapiens, MCF7, Exp 1) is over 20 µM; in data set [5] (Exp 2), over 20 µM; in data set [5] (Exp 3), over 20 µM; in data set [5] (Mean ± SE of 3 experiments), over 20 µM; in data set [6] (Exp 2), over 20 µM; in data set [6] (Exp 3), over 20 µM. Further, the IC50 was over 20 µM in data set [6] (Mean ± SE of 3 experiments); over 20 µM in data set [6] (Homo sapiens, Exp 1); over 20 µM in data set [7] (setting [10]); over 20 µM in data set [7] (setting [11]); over 20 µM in data set [7] (Mean ± SE of 3 experiments); over 20 µM in data set [7] (Homo sapiens, Exp 1, 4 h treatment + 24 h drug-free). Besides, the “growth inhibitory activity” value in data set [8] was “inactive”.

As for `CC1(C)OC2=C(CC1Br)C(=O)C(=O)c1ccccc12` (stereo not drawn) [Compound 3-Bromo-βL, 3-Bromo-βL], in data set [1], the “Solubility Enhancement” value was 191 −Fold, the “Solubility in HPBCD Solution” value amounted to 6900 µg/mL (≈ 21.5 mM) and the “Solubility in Water” value is 36 µg/mL (≈ 0.112 mM).

Regarding `CC1(C)OC2=C(CC1O)C(=O)C(=O)c1ccccc12` (stereo not drawn) [Compound 3-Hydroxy-βL, 3-Hydroxy-βL], in data set [1], the “Solubility Enhancement” value is 10.6 −Fold, the “Solubility in HPBCD Solution” value turned out to be 14600 µg/mL (≈ 56.5 mM) and the “Solubility in Water” value was 1381 µg/mL (≈ 5.35 mM).

For the molecule `CC1(C)CC(=O)C2=C(O1)c1ccccc1C(=O)C2=O` [Compound 4-keto-βL, 4-keto-βL], in data set [1], the “Solubility Enhancement” value is reported as 8.7 −Fold, the “Solubility in HPBCD Solution” value came to 4400 µg/mL (≈ 17.2 mM) and the “Solubility in Water” value worked out at 503 µg/mL (≈ 1.96 mM).

For `CC1OC2=C(C(=O)C(=O)c3ccccc32)C1(C)C` (stereo not drawn) [Dunnione], in data set [1], the “Solubility Enhancement” value is recorded as 36 −Fold, the “Solubility in HPBCD Solution” value came out at 17000 µg/mL (≈ 70.2 mM) and the “Solubility in Water” value came to 476 µg/mL (≈ 1.96 mM).
